Laboratory results from US12060349B2, “Glucosylceramide synthase inhibitors” (Genzyme Corporation, priority 2012, dated 2024).
Read-outs that look alike come from different tables or passages of the source. Each block holds one compound with its values, some of them ahead of it.

Tests used:
[1] = test system: GM3 expression on the cell surface, C32 human melanoma cells; assay: cell based phenotypic assay, cell surface GM3 by antibody mediated immunofluorescence, C32 (GM3 C32 IC50); conditions: Homo sapiens, 50% inhibition of GM3 expression on the cell surface
Method in brief: (§1)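 Two melanoma lines, mouse B16 and human C32, were treated and surface GM3 quantified by antibody immunofluorescence for IC50. A parallel viability readout gives the concentration killing 50% of cells, with values over 10 indicating no cell death.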

[2] = test system: GM3 expression on the cell surface, B16 mouse melanoma cells; assay: cell based phenotypic assay, cell surface GM3 by antibody mediated immunofluorescence, B16 (GM3 B16 IC50); conditions: Mus musculus, 50% inhibition of GM3 expression on the cell surface
Method in brief: as §1

[3] = target: T1, glucosylceramide synthase (Homo sapiens, UniProt Q16739); assay: microsomal assay measuring conversion of ceramide to glucosylceramide by HPLC (GCS IC50); type: biochemical; conditions: concentration causing 50% inhibition of glucosylceramide synthase activity
T1 construct: Microsomes were isolated from A375 human melanoma cells; endogenous in cells; host or cells: A375 human melanoma cells (microsomal fraction, 100,000 g pellet)
T1 sequence (Q16739 1-394): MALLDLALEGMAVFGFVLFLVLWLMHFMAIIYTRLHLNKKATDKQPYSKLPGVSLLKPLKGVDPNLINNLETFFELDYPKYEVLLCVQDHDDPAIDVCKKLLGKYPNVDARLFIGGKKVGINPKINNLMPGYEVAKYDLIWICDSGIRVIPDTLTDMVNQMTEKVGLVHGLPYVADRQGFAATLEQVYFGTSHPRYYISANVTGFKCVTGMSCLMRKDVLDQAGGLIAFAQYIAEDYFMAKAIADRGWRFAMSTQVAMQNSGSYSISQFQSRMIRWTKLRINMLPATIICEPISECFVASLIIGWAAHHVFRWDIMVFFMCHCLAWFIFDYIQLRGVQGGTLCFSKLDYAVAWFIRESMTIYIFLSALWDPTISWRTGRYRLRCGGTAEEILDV
Method in brief: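 IC50 is the compound concentration halving glucosylceramide synthase activity. Activity was measured in microsomes, with HPLC quantifying glucosylceramide formed from ceramide.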

B16 mouse melanoma cells = assay: cell viability in the B16 cell-based assay (Viability, B16 IC50); conditions: Mus musculus
Method in brief: (§2)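 Cell death was scored within the cell-based GM3 experiment for each line. The viability value is the concentration producing 50% death, and numbers exceeding 10 signify no cytotoxicity.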

C32 human melanoma cells = assay: cell viability in the C32 cell-based assay (Viability, C32 IC50); conditions: Homo sapiens, concentration causing 50% cell death, values greater than 10 represent a lack of cell death
Method in brief: as §2

[4] = C32 human melanoma cells, read-out: GM3 C32 IC50
[5] = B16 mouse melanoma cells, read-out: GM3 B16 IC50
[6] = B16, B16 cells, concentration causing 50% cell death, values greater than 10 represent a lack of cell death, read-out: Viability, B16 IC50
[7] = C32, C32 cells, read-out: Viability, C32 IC50
[8] = read-out: GM3 C32 IC50, C32 human melanoma cells
[9] = read-out: GM3 B16 IC50, B16 mouse melanoma cells
[10] = B16, read-out: Viability, B16 IC50
[11] = C32, read-out: Viability, C32 IC50, C32 cells

Compound: CCC1(NC(=O)NC(C)(C)c2ccc(-c3ccc(N4CCOCC4)cc3)cc2)CN2CCC1CC2 (stereo not shown) [Example 234, 1-(3-Ethylquinuclidin-3-yl)-3-(2-(4′-morpholino-[1,1′-biphenyl]-4-yl)propan-2-yl)urea]
- IC50 [1, 4]: 0.00181 µM
- IC50 [2, 5]: 0.0326 µM
- IC50 [3]: 0.0146 µM
- IC50 (B16 mouse melanoma cells; [6]): 1 µM
- IC50 (C32 human melanoma cells; [7]): 1 µM

Compound: CC(C)(NC(=O)OC1CN2CCC1CC2)c1ccc(-c2ccc(S(C)(=O)=O)cc2)cc1 (stereo not shown) [Example 235, Quinuclidin-3-yl (2-(4′-(methylsulfonyl)-[1,1′-biphenyl]-4-yl)propan-2-yl)carbamate]
- IC50 [1, 8]: 0.0199 µM
- IC50 [2, 9]: 0.118 µM
- IC50 [3]: 0.111 µM
- IC50 (B16 mouse melanoma cells; [10]): ≥ 10 µM
- IC50 (C32 human melanoma cells; [11]): ≥ 10 µM

Compound: CCC1(NC(=O)NC(C)(C)c2ccc(-c3ccc(S(C)(=O)=O)cc3)cc2)CN2CCC1CC2 (stereo not shown) [Example 236, 1-(3-Ethylquinuclidin-3-yl)-3-(2-(4′-(methylsulfonyl)-[1,1′-biphenyl]-4-yl)propan-2-yl)urea]
- IC50 [1, 4]: 0.00946 µM
- IC50 [2, 5]: 0.0744 µM
- IC50 [3]: 0.0538 µM
- IC50 (B16 mouse melanoma cells; [6]): ≥ 10 µM
- IC50 (C32 human melanoma cells; [7]): ≥ 10 µM

Compound: CCCC1(NC(=O)NC(C)(C)c2ccc(-c3ccc(S(C)(=O)=O)cc3)cc2)CN2CCC1CC2 (stereo not shown) [Example 237, 1-(2-(4′-(Methylsulfonyl)-[1,1′-biphenyl]-4-yl)propan-2-yl)-3-(3-propylquinuclidin-3-yl)urea]
- IC50 [1, 4]: 0.00671 µM
- IC50 [2, 5]: 0.0329 µM
- IC50 [3]: 0.0354 µM
- IC50 (B16 mouse melanoma cells; [6]): ≥ 10 µM
- IC50 (C32 human melanoma cells; [7]): ≥ 10 µM

Compound: CC(C)(NC(=O)OC1CN2CCC1CC2)c1ccc(-c2ccc(S(=O)(=O)CC3CC3)cc2)cc1 (stereo not shown) [Example 238, Quinuclidin-3-yl (2-(4′-((cyclopropylmethyl)sulfonyl)-[1,1′-biphenyl]-4-yl)propan-2-yl)carbamate]
- IC50 [1, 8]: 0.00445 µM
- IC50 [2, 9]: 0.0501 µM
- IC50 [3]: 0.0154 µM
- IC50 (B16 mouse melanoma cells; [10]): ≥ 10 µM
- IC50 (C32 human melanoma cells; [11]): 1 µM

Compound: CCC1(NC(=O)NC(C)(C)c2ccc(-c3ccc(S(=O)(=O)CC4CC4)cc3)cc2)CN2CCC1CC2 (stereo not shown) [Example 239, 1-(2-(4′-((Cyclopropylmethyl)sulfonyl)-[1,1′-biphenyl]-4-yl)propan-2-yl)-3-(3-ethylquinuclidin-3-yl)urea]
- IC50 [1, 4]: 0.00321 µM
- IC50 [2, 5]: 0.0285 µM
- IC50 [3]: 0.00987 µM
- IC50 (B16 mouse melanoma cells; [6]): ≥ 10 µM
- IC50 (C32 human melanoma cells; [7]): 1 µM

Compound: CC(C)(NC(=O)NC1(C)CN2CCC1CC2)c1ccc(-c2ccc(S(=O)(=O)CC3CC3)cc2)cc1 (stereo not shown) [Example 240, 1-(2-(4′-((Cyclopropylmethyl)sulfonyl)-[1,1′-biphenyl]-4-yl)propan-2-yl)-3-(3-methylquinuclidin-3-yl)urea]
- IC50 [1, 4]: 0.00597 µM
- IC50 [2, 5]: 0.0865 µM
- IC50 [3]: 0.0133 µM
- IC50 (B16 mouse melanoma cells; [6]): ≥ 10 µM
- IC50 (C32 human melanoma cells; [7]): 1 µM

- IC50 [1, 4]: 0.00144 µM
- IC50 [2, 5]: 0.0122 µM
- IC50 [3]: 0.00423 µM
Compound: CC(C)(NC(=O)OC1CCN2CCC1CC2)c1ccc(-c2ccc(S(=O)(=O)CC3CC3)cc2)cc1 (stereo not shown) [Example 241, 1-Azabicyclo[3.2.2]nonan-4-yl (2-(4′-((cyclopropylmethyl)sulfonyl)-[1,1′-biphenyl]-4-yl)propan-2-yl)carbamate]
- IC50 (B16 mouse melanoma cells; [6]): ≥ 10 µM
- IC50 (C32 human melanoma cells; [7]): 3.16 µM

Compound: COCCCS(=O)(=O)c1ccc(-c2ccc(C(C)(C)NC(=O)OC3CN4CCC3CC4)cc2)cc1 (stereo not shown) [Example 242, Quinuclidin-3-yl (2-(4′-((3-methoxypropyl)sulfonyl)-[1,1′-biphenyl]-4-yl)propan-2-yl)carbamate]
- IC50 [1, 8]: 0.0102 µM
- IC50 [2, 9]: 0.0825 µM
- IC50 [3]: 0.0325 µM
- IC50 (B16 mouse melanoma cells; [10]): ≥ 10 µM
- IC50 (C32 human melanoma cells; [11]): 3.16 µM

Compound: CCC1(NC(=O)NC(C)(C)c2ccc(-c3ccc(S(=O)(=O)CCCOC)cc3)cc2)CN2CCC1CC2 (stereo not shown) [Example 243, 1-(3-Ethylquinuclidin-3-yl)-3-(2-(4′-((3-methoxypropyl)sulfonyl)-[1,1′-biphenyl]-4-yl)propan-2-yl)urea]
- IC50 [1, 4]: 0.00749 µM
- IC50 [2, 5]: 0.0573 µM
- IC50 [3]: 0.0328 µM
- IC50 (B16 mouse melanoma cells; [6]): ≥ 10 µM
- IC50 (C32 human melanoma cells; [7]): 3.16 µM

Compound: CCCC1(NC(=O)NC(C)(C)c2ccc(-c3ccc(S(=O)(=O)CCCOC)cc3)cc2)CN2CCC1CC2 (stereo not shown) [Example 244, 1-(2-(4′-((3-Methoxypropyl)sulfonyl)-[1,1′-biphenyl]-4-yl)propan-2-yl)-3-(3-propylquinuclidin-3-yl)urea]
- IC50 [1, 4]: 0.00699 µM
- IC50 [2, 5]: 0.0341 µM
- IC50 [3]: 0.0371 µM
- IC50 (B16 mouse melanoma cells; [6]): ≥ 10 µM
- IC50 (C32 human melanoma cells; [7]): 3.16 µM
